The test system of test [1] is human polymorphonuclear neutrophil leukocytes. Nature of the test: Inhibition of A 23187-stimulated oxidative burst (chemiluminescence) in PMNL. The conditions noted are these: minimal inhibiting concentration with significant inhibition of all 3 chemiluminescence parameters; calcium ionophor A 23187 stimulus. The test is classed as cell-based. How it is done:
(§1) 3. Inhibition of the Oxidative Burst in Human Polymorphonuclear neutrophil leukocytes (inhibition of FMLP—or, respectively, A 23187-stimulated chemiluminescence):
(§2) Polymorphonuclear leukocytes (PMNL) are prepared from human peripheral blood (M. Schaude et al., Mycoses 31 (5) [1988]259-267). Stock solutions of the test substances (500 mg/l) are freshly prepared on the day of experiment in 5% DMSO/RPMI 1640. For the determination of the chemiluminescence (CL) with Biolumat LB 9505 the luminescence indicator DMNH is used. […] The CL-reaction is started by addition of either 100 μl of the peptide FMLP (4×10^−6 M) or of the calcium ionophor A 23187 (4×10^−6 M). […] 3 parameters are used for evaluation of the results: peak intensity of the radiated light, time span up to the peak and surface area under the reaction curve. As minimal inhibiting concentration the concentration of test substance is chosen where a significant inhibition of all 3 parameters can be observed (Table 4).

The test system is the same in test [2]. As to the kind of experiment: Inhibition of FMLP-stimulated oxidative burst (chemiluminescence) in PMNL. The format is cell-based. The conditions noted are these: minimal inhibiting concentration with significant inhibition of all 3 chemiluminescence parameters; FMLP stimulus. How it is done: as §1, §2
The next test deals with TPA-induced dermatitis. As to the kind of experiment: TPA-induced dermatitis (mouse), topical administration. The test is classed as in vivo, NMRI mice. The conditions noted are these: dimethylacetamide/acetone/ethanol (2/4/4), pinna weight difference 6 hours after irritant. How it is done:
2. Determination of the Activity after Topical Administration In the Irritant-Induced Dermatitis Model (Mouse) 2.1 TPA-induced Dermatitis: Skin irritation with TPA in test animals is a method for testing substances as to their antiinflammatory activity after local application (Maibach, Lowe, Ed. Models in Dermatology, Vol. 3 [1987] p. 86-92, Karger-Basel). NMRI mice are given 10 μl of a TPA solution on the inner and outer side of the right pinna (2×10 μl/mouse=2×0.5 μg TPA/mouse). The left pinnae remain untreated. Treatment is effected 30 min. after irritation, by application of 2×10 μl of test solution onto the irritated ear surfaces, as described above. The evaluation of the test group is performed by comparison with a group where the right pinna has been treated with only the irritating solution and with the solvent used for the test substance. 6 hours after application of the irritant the animals are killed, the pinnae separated and weighted. The difference in weight of the two pinnae is used for the evaluation, whereby the individual differences of the test groups are statistically compared with the individual differences of the control groups (as under 1.1.). The activity of the test substances is indicated in % on the basis of the average values. The solvent used is a mixture of dimethylacetamide, acetone and ethanol (2/4/4): […]

Test [3] concerns dermatitis induced by croton oil. As to the kind of experiment: Dermatitis induced by croton oil (mouse), topical administration. The test is classed as in vivo, NMRI mice. Conditions: dissolved in irritant solution, pinna weight difference 6 hours after irritant. The protocol:
2. Determination of the Activity after Topical Administration In the Irritant-Induced Dermatitis Model (Mouse) 2.2. Dermatitis Induced by Croton Oil Croton oil is often used, as TPA, in order to induce an irritant-induced dermatitis on which substances can be tested for their anti-inflammatory activity (Maibach, Love, Ed., Models in Dermatology, Vol. 3[1987]p. 86-92, Karger-Basel). NMRI-mice are given 15 μl of 0.23% croton oil (in a mixture of dimethylacetamide, acetone and ethanol 2/4/4) on the inner side of the right pinna. Treatment is effected simultaneously with the irritation, the test substance being dissolved in the solution of irritant applied at the auricular test site. Evaluation of the test group is performed by comparison of the inflammation with a group receiving only the irritant solution on the pinna. The animals are killed 6 hours after application of the irritant, the pinnae separated and weighted. The difference between the weights of the two individual pinnae is used for evaluation, by statistical comparison of the single differences in the test group with the single differences in the control group (as under 1.1.). The activity of the test substances is indicated in % based on average values.

Test [4] has as its system TPA-induced PGE2 release from macrophages. Nature of the test: Inhibition of macrophage activation (TPA-induced PGE2 release). The test is classed as cell-based, NMRI mice. The conditions noted are these: PGE2 release from TPA-stimulated mouse peritoneal macrophages. The protocol:
4. Inhibition of Macrophage Activation (Inhibition of TPA-induced PGE2 release)
Peritoneal exudate cells of NMRI mice pretreated 3 days earlier with 1.5 ml thioglycolate i.p. are harvested by peritoneal lavage, washed with deficient PBS and resuspended in DMEM medium supplemented with 10% FCS. 1×10^6 cells are transferred to each well of a 24-wells plate, and the cells are left to adhere 4 hours at 37° and 5% CO2. The cells are then washed twice with deficient PBS. The resultant, more than 95% pure macrophage population is stimulated with TPA ([…]) in DMEM-medium devoid of FCS. The conditioned media are centrifuged and the PGE2-contents determined using a ^125I-radioimmunotest. PGE2-release inhibition with the test substances is measured as percentage inhibition compared to the controls.

In a further test the test system is DNFB contact allergy. Nature of the test: DNFB allergy (swine), topical administration. The test is classed as in vivo. The conditions noted are these: 5% preparation (solution in 15% dimethylformamide, 42.5% ethanol, 42.5% propylenglycol), applied topically 4 times.
The test system of another test is human keratinocytes. As to the kind of experiment: Inhibition of proliferation of human keratinocytes. The test is classed as cell-based. How it is done: 5. Inhibition of proliferation of human keratinocytes
Cultures of human keratinocytes are obtained by trypsination of human foreskin from newborns or obtained as to EpiPack from Clonetics Corp. (San Diego). The keratinocyte cultures are grown in culture flasks in a supplemented keratinocyte medium (KGM). The passages 3 to 5 of 80-90% confluent keratinocytes are resuspended in KGM at a concentration of 1×10^5 cells/ml, and either 0.1 ml each of this cell suspension is added into a 96-vells microtiter plate or 1 ml each of this cell suspension are added into a 24-wells plate in the presence of test substance. The cells are grown for 48 hours at 37° and 5% CO2. ^3H-thymidine is incorporated during the last 16 hours (microtiter plate, 1 μCi/well), the cells are checked for their morphology, washed thrice with ice-cold, deficient PBS and twice with trichloroacetic acid, solubilized in 100 μl 0.1 N NaOH containing 1% SDS, and the radioactivity is measured. Alternatively, cells from the 24-well plate are trypsinized (trypsin/EDTA), checked for viability by trypan blue exclusion, and triple aliquots are counted in a cell counter.

Test [5] concerns oxazolone allergy (allergic contact dermatitis, DTH-reaction). Nature of the test: Oxazolone allergy (mouse), topical administration. The format is in vivo. The conditions noted are these: ethanol as solvent, pinna weight difference 24 hours after second exposure. The protocol: 1. Determination of the activity after topical administration in models of allergic or allergen-induced contact dermatitis (DTH-reaction) 1.1. Oxazolone Allergy (Mouse): 10 μl of a 2% oxazolone solution are applied onto the abdominal skin of mice for sensitization, 8 days later a second exposure with 10 μl of a 2% oxazolone solution is performed by application on the peripheral internal surface of the pinna. 20 minutes and 2 hours after the second exposure has released the challenge reaction, the test solution is applied at the site of the second exposure. Evaluation of the inhibition of inflammation with the test substance is effected by reference to an untreated group treated with the solvent used for dissolving the test substance, alone. 24 hours after the second exposure the animals are killed and the separated pinnae are weighted. The difference in weight between the two pinnae is used for evaluation; the individual differences in the test group and in the solvent control group are statistically compared (by simple variance analysis with subsequent Dunnet test by normal distribution test if normally distributed, otherwise by […] and Wilcoxon-Mann-Whitney's U-test). The activity of the test substance is indicated in %, based on mean values. […] Ethanol is used as solvent.

Each structure is given as a SMILES string. ≈ marks a conversion by molar mass, not a printed value.

Procedure for DNFB contact allergy: On the 1st and 3rd day 100 μl each of a 10% DNFB preparation is applied onto the inner surface of the right and, respectively, left thigh. On the 14th day each swine is marked on the right and the left side of the back with circular markings of 5 cm in diameter (8 markings per animal) and 150 μl each of a 0.5% DNFB preparation is applied thereon. The substances are tested either in the form of galenical compositions or of a solution. The carriers are used in each case as placebo controls.
The test products are carefully applied 4 times (first 30 minutes, then 6, 24 and 32 hours after release of the challenge reaction). Prior to each application the test areas are evaluated with respect to reddenning, swelling and consistance. The coloration of the test areas is then determined quantitatively with a reflectometer, repeatedly. From the data on brightness (L*) and saturation (C*) the erythema index is computed according to the following formula: 100−L*×C*. The mean erythema index is a reflection of the activity according to the following formula: [formula]

In the case of `C=CCC1C=C(C)CC(C)CC(OC)C2OC(O)(C(=O)C(=O)N3CCCCC3C(=O)OC(C(C)=CC3CCC(OC(C)=O)C(OC)C3)C(C)C(O)CC1=O)C(C)CC2OC` (stereo not shown) [Compound E, 12-[2-(4-acetoxy-3-methoxycyclohexyl)-1-methylvinyl]-17-allyl-1,14-dihydroxy-23,25-dimethoxy-13,19,21,27-tetramethyl-11,28-dioxa-4-azatricyclo[22.3.1.0^4,9]octacos-18-ene-2,3,10,16-tetraone], the “MIC (μM) (A 23187)” value in test [1] is 0.05 µM (≈ 0.0423 µg/mL). Besides, in test [2], the “MIC (μM) (FMLP)” value was less than 0.5 µM.
In the case of `COc1ccc2c(c1)c(CC(=O)O)c(C)n2C(=O)c1ccc(Cl)cc1` [Indomethacin, reference compound], the % inhibition (as a rule, the change of the read-out against control, counted positive when it falls) in the test with TPA-induced dermatitis (1.2 % concentration) is 26%; in the test with TPA-induced dermatitis (3.6 % concentration), 31%; in test [3] (0.4 % concentration), 11%; in test [3] (1.2 % concentration), 63%; in test [3] (3.6 % concentration), 96%.
Consider `C=CCC1C=C(C)CC(C)CC(OC)C2OC(O)(C(=O)C(=O)N3CCCCC3C(=O)OC(C(C)=CC3CCC(O)C(OC)C3)C(C)C=CC1=O)C(C)CC2OC` (stereo not shown) [Compound C, 17-allyl-1-hydroxy-12-[2-(4-hydroxy-3-methoxycyclohexyl)-1-methylvinyl]-23,25-dimethoxy-13,19,21,27-tetramethyl-11,28-dioxa-4-azatricyclo[22.3.1.0^4,9]octacosa-14,18-diene-2,3,10,16-tetraone], for which the “MIC (μM) (A 23187)” value in test [1] was found to be 5 µM (≈ 3.93 µg/mL). Further, at 1 µM the inhibition in test [4] was 60%. Also, in test [2], the “MIC (μM) (FMLP)” value was 0.5 µM (≈ 0.393 µg/mL).
On to `C=CC[C@@H]1/C=C(\C)C[C@H](C)C[C@H](OC)[C@H]2O[C@@](O)(C(=O)C(=O)N3CCCC[C@H]3C(=O)O[C@H](/C(C)=C/[C@@H]3CC[C@@H](O)[C@H](OC)C3)[C@H](C)[C@@H](O)CC1=O)[C@H](C)C[C@@H]2OC` [Compound A, 17-Allyl-1,14-dihydroxy-12-[2-(4-hydroxy-3-methoxycyclo-hexyl)-1-methylvinyl]-23,25-dimethoxy-13,19,21,27-tetramethyl-11,28-dioxa-4-azatricyclo[22.3.1.0^4,9]octacos-18-ene-2,3,10,16-tetraone], for which the “MIC (μM) (A 23187)” value in test [1] stood at 0.05 µM (≈ 0.0402 µg/mL). For the same compound, the inhibition (in general, the drop in the measured response relative to a control, in per cent) at 1 µM in test [4] worked out at 30%; in the test with human keratinocytes (Homo sapiens, Keratinocyte, 1 μM, 48 hours, read-out: % inhibition compared to control) it was 74%. For the same compound, the “% inhibition” value amounted to 52% in the test with TPA-induced dermatitis (1.2 % concentration); 56% with TPA-induced dermatitis (3.6 % concentration); 52% in test [3] (0.4 % concentration); 64% in test [3] (1.2 % concentration); 85% in test [3] (3.6 % concentration); 35% in test [5] (0.0005 % concentration). Besides, the “% inhibition” value in test [5] (0.002 % concentration) amounted to 38%; in test [5] (0.005 % concentration), 52%; in test [5] (0.01 % concentration) it was 65%; in test [5] (0.13 % concentration) it was 65%. Besides, the “clinical evaluation of the test sites / activity” value in the test on DNFB contact allergy is listed as “the treated areas can hardly be distinguished from the adjacent normal skin”. The “MIC (μM) (FMLP)” value in test [2] is 0.005 µM (≈ 0.00402 µg/mL). In addition, the inhibition at 0.5 µM in the test on human keratinocytes (Homo sapiens, Keratinocyte, 0.5 μM, 48 hours, read-out: % inhibition compared to control) turned out to be 57%. For the same compound, in the test on human keratinocytes (Homo sapiens, Keratinocyte, 5 μM, 48 hours, read-out: % inhibition compared to control), the inhibition at 5 µM was determined as 94%. The reduction in proliferation entry with human keratinocytes (concentration range from 0.5 to 5 μM) was “dose-dependent reduction in proliferation”.
On to `C=CCC1C=C(C)CC(C)CC(OC)C2OC(O)(C(=O)C(=O)N3CCCCC3C(=O)OC(C(C)=CC3CCC(OC(C)=O)C(OC)C3)C(C)C(OC(C)=O)CC1=O)C(C)CC2OC` (stereo not shown) [Compound D, 14-acetoxy-12-[2-(4-acetoxy-3-methoxycyclohexyl)-1-methylvinyl]-17-allyl-1-hydroxy-23,25-dimethoxy-13,19,21,27-tetramethyl-11,28-dioxa-4-azatricyclo[22.3.1.0^4,9]octacos-18-ene-2,3,10,16-tetraone], for which, in test [1], the “MIC (μM) (A 23187)” value is 0.5 µM (≈ 0.444 µg/mL). Further, the “MIC (μM) (FMLP)” value in test [2] is less than 0.5 µM.
As to `CCCC1C=C(C)CC(C)CC(OC)C2OC(O)(C(=O)C(=O)N3CCCCC3C(=O)OC(C(C)=CC3CCC(O)C(OC)C3)C(C)C(O)CC1=O)C(C)CC2OC` (stereo not shown) [Compound B, 1,14-dihydroxy-12-[2-(4-hydroxy-3-methoxycyclohexyl)-1-methylvinyl]-23,25-dimethoxy-13,19,21,27-tetramethyl-17-propyl-11,28-dioxa-4-azatricyclo[22.3.1.0^4,9]octacos-18-ene-2,3,10,16-tetraone], the “MIC (μM) (A 23187)” value in test [1] amounted to 0.01 µM (≈ 0.00806 µg/mL). Also, in test [4], the inhibition at 1 µM stood at 60%. Besides, the “MIC (μM) (FMLP)” value in test [2] stood at 0.01 µM (≈ 0.00806 µg/mL). Further, in test [5] (0.005 % concentration), the “% inhibition” value was determined as 60%.

These data come from patent US20050059694A1, “New use of 11.28-dioxa-4-azatricyclo [22.3.1.04,9] octacos-18-ene derivatives and pharmaceutical compositions containing them” (Fujisawa Pharmaceutical Co., Ltd., priority 1987, published 2005).
